Where two headings read alike, the source gives them in different places.
Tests used:
Assay type in all cases: biochemical
[1] = target: PKC theta kinase (Homo sapiens, UniProt Q04759); assay: PKC theta kinase inhibition, coupled-enzyme (NADH absorbance) assay, Ki; details: 240 μM ATP, 18 nM PKC theta kinase, 30° C.
Protocol: An assay buffer solution was prepared which consisted of 100 mM HEPES (pH 7.5), 10 mM MgCl2, 25 mM NaCl, 0.1 mM EDTA and 0.01% Brij. […] To 60 μL of this enzyme buffer, in a 384 well plate, was added 2 μL of VRT stock solution in DMSO. The mixture was allowed to equilibrate for 10 mins at 30° C. […] Ki values were calculated from initial rate data by non-linear regression using the Prism software package (Prism 4.0a, Graphpad Software, San Diego, Calif.).

[2] = target: PKC delta kinase (Homo sapiens, UniProt Q05655); assay: PKC delta kinase inhibition, coupled-enzyme (NADH absorbance) assay, Ki; details: 150 μM ATP, 46 nM PKC delta kinase, 30° C.
Chain of PKC delta kinase (Q05655 whole entry): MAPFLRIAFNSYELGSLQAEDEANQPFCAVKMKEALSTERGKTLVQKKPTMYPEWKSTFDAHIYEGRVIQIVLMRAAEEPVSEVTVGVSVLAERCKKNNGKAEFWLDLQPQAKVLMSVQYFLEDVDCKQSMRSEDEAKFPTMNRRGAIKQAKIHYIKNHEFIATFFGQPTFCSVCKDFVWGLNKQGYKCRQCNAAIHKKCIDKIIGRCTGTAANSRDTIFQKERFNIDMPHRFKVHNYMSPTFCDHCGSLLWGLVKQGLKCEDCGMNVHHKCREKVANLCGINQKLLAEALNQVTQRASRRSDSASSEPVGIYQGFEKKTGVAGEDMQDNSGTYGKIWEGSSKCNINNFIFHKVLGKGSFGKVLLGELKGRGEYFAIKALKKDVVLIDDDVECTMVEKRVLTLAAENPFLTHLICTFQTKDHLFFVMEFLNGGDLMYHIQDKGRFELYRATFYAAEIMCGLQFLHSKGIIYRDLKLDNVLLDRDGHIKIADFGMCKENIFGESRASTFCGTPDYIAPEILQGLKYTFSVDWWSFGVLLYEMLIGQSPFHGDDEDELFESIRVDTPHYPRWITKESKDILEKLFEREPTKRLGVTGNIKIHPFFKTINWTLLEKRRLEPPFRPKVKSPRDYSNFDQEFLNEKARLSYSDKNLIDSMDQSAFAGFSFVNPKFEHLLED
Protocol: (§1) An assay buffer solution was prepared which consisted of 100 mM HEPES (pH 7.5), 10 mM MgCl2, 25 mM NaCl, 0.1 mM EDTA and 0.01% Brij. […] To 16 μL of this enzyme buffer, in a 384 well plate, was added 1 μL of VRT stock solution in DMSO. The mixture was allowed to equilibrate for 10 mins at 30° C. The enzyme reaction was initiated by the addition of 16 μL stock ATP solution prepared in assay buffer to a final assay concentration of 150 μM. Initial rate data was determined from the rate of change of absorbance at 340 nm (corresponding to stoichiometric consumption of NADH) using a Molecular Devices Spectramax plate reader (Sunnyvale, Calif.) over 15 mins at 30° C. […] Ki values were calculated from initial rate data by non-linear regression using the Prism software package (Prism 4.0a, Graphpad Software, San Diego, Calif.).

[3] = target: PKC alpha kinase (Homo sapiens, UniProt P17252); assay: PKC alpha kinase inhibition, coupled-enzyme (NADH absorbance) assay, Ki; details: 130 μM ATP, 4.5 nM PKC alpha kinase, 30° C.
Protocol: as §1, with “EDTA, 100 μM CaCl2” for “EDTA”, “130” for “150”

Chain of PKC theta kinase (Q04759 whole entry): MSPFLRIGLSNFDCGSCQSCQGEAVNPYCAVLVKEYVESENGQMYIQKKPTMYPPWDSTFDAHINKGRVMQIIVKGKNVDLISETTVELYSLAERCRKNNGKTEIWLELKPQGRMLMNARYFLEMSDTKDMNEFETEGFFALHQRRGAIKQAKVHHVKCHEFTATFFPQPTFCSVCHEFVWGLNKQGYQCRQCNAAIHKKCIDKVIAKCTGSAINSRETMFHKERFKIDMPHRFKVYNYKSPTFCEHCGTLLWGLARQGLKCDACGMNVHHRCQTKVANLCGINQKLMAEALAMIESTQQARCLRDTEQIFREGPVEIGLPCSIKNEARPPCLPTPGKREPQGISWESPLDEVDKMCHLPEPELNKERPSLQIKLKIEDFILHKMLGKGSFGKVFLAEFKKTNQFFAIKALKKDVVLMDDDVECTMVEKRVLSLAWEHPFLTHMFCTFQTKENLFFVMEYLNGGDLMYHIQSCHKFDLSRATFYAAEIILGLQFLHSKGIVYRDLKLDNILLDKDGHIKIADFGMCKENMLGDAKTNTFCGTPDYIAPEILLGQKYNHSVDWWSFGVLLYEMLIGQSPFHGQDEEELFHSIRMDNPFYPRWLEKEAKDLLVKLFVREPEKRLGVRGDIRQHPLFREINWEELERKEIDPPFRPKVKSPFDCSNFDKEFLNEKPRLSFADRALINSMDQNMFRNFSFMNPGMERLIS

| SMILES | Ki [1] | Ki ([2]; read-out: Ki PKC delta) | Ki [3] | Ki ([2]; Ki PKC delta) |
| --- | --- | --- | --- | --- |
| CC(C)C[C@H]1CN(c2ccc(C(F)(F)F)c(-c3n[nH]c4ncccc34)n2)CC[C@@H]1N [Compound 85] | < 500 nM | > 2000 nM | > 1250 nM |  |
| CC(C)CC1(C)CN(c2ccc(Cl)c(-c3n[nH]c4ncccc34)n2)CCN1 (stereo not drawn) [Compound 86] | < 50 nM | < 50 nM | < 50 nM |  |
| CC(C)(O)C1CN(c2ccc(C(F)(F)F)c(-c3n[nH]c4ncccc34)n2)CCN1 (stereo not drawn) [Compound 87] | < 500 nM | > 2000 nM | > 1250 nM |  |
| Fc1ccc(N2CCNCC2)nc1-c1n[nH]c2ncccc12 [Compound 88] | < 500 nM |  | > 1250 nM | < 2800 nM |
| CC(C)CC1(C)CN(c2cccc(-c3n[nH]c4ncccc34)n2)CCN1 (stereo not drawn) [Compound 89] | < 50 nM | < 50 nM | < 500 nM |  |
| CC(C)C[C@H]1CN(c2ccc(C(F)(F)F)c(-c3n[nH]c4ncccc34)n2)CC[C@@H]1O [Compound 90] | > 700 nM | > 2000 nM | > 1250 nM |  |
| CC(C)C[C@H]1CN(c2ccc(C(F)(F)F)c(-c3n[nH]c4ncccc34)n2)CC[C@H]1O [Compound 91] | < 500 nM | > 2000 nM | > 1250 nM |  |
| C=C(F)c1cc(-c2n[nH]c3ncccc23)nc(N2CCNCC2)c1 [Compound 92] | < 500 nM | < 500 nM | > 1250 nM |  |
| Cc1cc(-c2n[nH]c3ncccc23)nc(N2CCNCC2)c1 [Compound 93] | > 700 nM | > 2000 nM | > 1250 nM |  |
| FC(F)(F)c1cc(-c2n[nH]c3ncccc23)nc(N2CCNCC2)c1 [Compound 94] | > 700 nM | > 2000 nM | > 1250 nM |  |
| Cc1cc(N2CCNCC2)nc(-c2n[nH]c3ncccc23)c1Cl [Compound 95] | < 2800 nM | < 2800 nM | > 1250 nM |  |
| FC(F)(F)c1ccc(N2CCCNCC2)nc1-c1n[nH]c2ncccc12 [Compound 97] | < 500 nM | > 2000 nM | > 1250 nM |  |
| CC(C)[C@H]1CN(c2ccc(C(F)(F)F)c(-c3n[nH]c4ncccc34)n2)CCN1 [Compound 98] | < 500 nM | > 2000 nM | > 1250 nM |  |
| CC(C)C[C@@H]1CC(F)(c2cccc(-c3n[nH]c4ncccc34)n2)CCN1 (stereo partly drawn) [Compound 99] | < 500 nM | > 2000 nM | > 1250 nM |  |
| COC(C)(C)CC1CN(c2ccc(C(F)(F)F)c(-c3n[nH]c4ncccc34)n2)CCN1 (stereo not drawn) [Compound 100] | < 500 nM | > 1250 nM | > 1250 nM |  |
| COC(C)(C)CC1CN(c2cccc(-c3n[nH]c4ncccc34)n2)CCN1 (stereo not drawn) [Compound 101] | < 50 nM | > 1250 nM | > 1250 nM |  |
| CC(C)(F)CC1CN(c2ccc(C(F)(F)F)c(-c3n[nH]c4ncccc34)n2)CCN1 (stereo not drawn) [Compound 102] | < 50 nM | > 1250 nM | > 1250 nM |  |
| C=C(C)CC1CN(c2ccc(C(F)(F)F)c(-c3n[nH]c4ncccc34)n2)CCN1 (stereo not drawn) [Compound 103] | < 50 nM | < 500 nM | < 2800 nM |  |
| CC(C)=CC1CN(c2ccc(C(F)(F)F)c(-c3n[nH]c4ncccc34)n2)CCN1 (stereo not drawn) [Compound 104] | < 50 nM | < 2800 nM | < 2800 nM |  |
| CC(C)(O)C1CN(c2cccc(-c3n[nH]c4ncccc34)n2)CCN1 (stereo not drawn) [Compound 105] | < 50 nM | < 500 nM | > 1250 nM |  |
| C=C(F)c1cc(-c2n[nH]c3ncccc23)nc(N2CCC(N)CC2)c1 [Compound 106] | < 500 nM | > 1250 nM | > 1250 nM |  |
| Cc1cc(-c2n[nH]c3ncccc23)nc(N2CCC(N)CC2)c1 [Compound 107] | < 500 nM | > 1250 nM | > 1250 nM |  |
| NC1CCN(c2cc(C(F)(F)F)cc(-c3n[nH]c4ncccc34)n2)CC1 [Compound 108] | < 500 nM | < 2800 nM | > 1250 nM |  |
| Cc1cc(N2CCC(N)CC2)nc(-c2n[nH]c3ncccc23)c1Cl [Compound 109] | < 2800 nM | > 1250 nM | > 1250 nM |  |

From US9193722B2, “Tri-cyclic pyrazolopyridine kinase inhibitors” (Vertex Pharmaceuticals Incorporated, priority 2008, dated 2015)
